According to ChEMBL document CHEMBL1149359, “Total synthesis and biological evaluation of ustiloxin natural products and two analogs” (Bioorg Med Chem Lett, 2006):

What follows are compounds tested against Tubulin (assay: Inhibition of tubulin polymerization).
Format: protein-complex assay, Homo sapiens
`CC[C@@]1(C)Oc2cc(ccc2O)[C@@H](O)[C@H](NC)C(=O)N[C@@H](C(C)C)C(=O)N[C@@H]1C(=O)NCC(=O)O` [USTILOXIN D] was tested, and the IC50 was 1.5 µM.
`CC[C@@]1(C)Oc2cc(c([S+]([O-])C[C@@H](O)C[C@H](N)C(=O)O)cc2O)[C@@H](O)[C@H](NC)C(=O)N[C@@H](C(C)C)C(=O)N[C@@H]1C(=O)NCC(=O)O` (some centres not stated) [USTILOXIN A] gave an IC50 of 1.1 µM.
Compound `CC[C@@]1(C)Oc2cc(ccc2O)[C@@H](O)[C@H](NC)C(=O)N[C@@H](C)C(=O)N[C@@H]1C(=O)NCC(=O)O` [USTILOXIN F] has an IC50 of 8.2 µM.
In the case of `CC[C@@]1(C)Oc2cc(ccc2OC)[C@@H](O)[C@H](NC)C(=O)N[C@@H](C(C)C)C(=O)N[C@@H]1C(=O)NCC(=O)O`, the IC50 is reported as > 40 µM.
Work on `CC[C@@H](C)[C@@H]1NC(=O)[C@@H](NC)[C@H](O)c2ccc(O)c(c2)O[C@](C)(CC)[C@@H](C(=O)NCC(=O)O)NC1=O` yielded an IC50 of 4.8 µM.

The compounds below were run on CA46 (assay: Cytotoxicity against human CA46 cell line).
Format: functional, cell-based
For `CC[C@@]1(C)Oc2cc(c([S+]([O-])C[C@@H](O)C[C@H](N)C(=O)O)cc2O)[C@@H](O)[C@H](NC)C(=O)N[C@@H](C(C)C)C(=O)N[C@@H]1C(=O)NCC(=O)O` (some centres not stated) [USTILOXIN A], the IC50 was 2500 nM.
Compound `CC[C@H](C)[C@@H]([C@@H](CC(=O)N1CCC[C@H]1[C@H](OC)[C@@H](C)C(=O)N[C@@H](Cc1ccccc1)c1nccs1)OC)N(C)C(=O)[C@@H](NC(=O)[C@H](C(C)C)N(C)C)C(C)C` [DOLASTATIN-10] has an IC50 of 30 nM.
